The source of these data is patent US20260053931A1, “MDM2 TARGETING PROTACS” (THE WISTAR INSTITUTE OF ANATOMY AND BIOLOGY, priority 2023, published 2026).

For one data set, the target named is Mdm2-VHL (Homo sapiens, UniProt P40337+Q00987). As to the kind of experiment: AlphaScreen ternary complex formation. It is filed as binding. Particulars: GST-MDM2 and HIS-VHL. The text has this: A. Chemical structure of MDM2-PROTAC. B-C. MDM2:p53 and MDM2:VHL-HIF1α peptide binding inhibition determined by homogeneous time-resolved fluorescence (HTRF, triplicate, mean±SEM, B) and surface plasmon resonance (SPR, triplicate, mean±SD, C. Binding assays by the indicated compounds. Graphical data is representative of 3 separate experiments. D. AlphaScreen of ternary complex using GST-MDM2 and HIS-VHL; mean±SD. E-F. Western blot analysis for the proteins indicated following a dose-titration (E, 16 hr) and time course (F, 6 μM) with the PROTAC or vehicle control (DMSO, −) in MDA-MB-231 (p53-mutant) and MDA-MB-436 (p53-delete) cells. G-K. Western blot analysis for the proteins indicated following treatment with the MDM2-PROTAC and/or the neddylation activating enzyme inhibitor MLN4924 G.
Sequence of Mdm2-VHL (Q00987 whole entry): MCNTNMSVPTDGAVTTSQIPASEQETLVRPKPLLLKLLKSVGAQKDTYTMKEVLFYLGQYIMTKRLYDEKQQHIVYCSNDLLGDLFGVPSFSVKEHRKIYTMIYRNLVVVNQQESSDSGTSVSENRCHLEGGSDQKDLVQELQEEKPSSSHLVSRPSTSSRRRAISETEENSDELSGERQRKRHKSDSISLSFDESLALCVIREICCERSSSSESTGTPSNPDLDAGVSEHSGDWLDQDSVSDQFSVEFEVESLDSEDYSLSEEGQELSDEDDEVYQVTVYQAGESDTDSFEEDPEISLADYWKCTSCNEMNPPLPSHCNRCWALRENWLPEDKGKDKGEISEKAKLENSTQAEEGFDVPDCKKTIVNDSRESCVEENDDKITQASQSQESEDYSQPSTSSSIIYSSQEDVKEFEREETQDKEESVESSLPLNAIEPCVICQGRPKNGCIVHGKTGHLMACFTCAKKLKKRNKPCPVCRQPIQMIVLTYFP
Sequence of Mdm2-VHL (P40337 whole entry): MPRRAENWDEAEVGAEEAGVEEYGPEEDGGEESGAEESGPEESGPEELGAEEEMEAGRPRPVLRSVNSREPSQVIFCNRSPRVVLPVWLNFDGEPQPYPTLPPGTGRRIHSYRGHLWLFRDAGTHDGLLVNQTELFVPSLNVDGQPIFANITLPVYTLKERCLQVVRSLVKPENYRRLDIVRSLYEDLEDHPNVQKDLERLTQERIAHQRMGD
Sequence of Mdm2-VHL (Q15370 whole entry partner): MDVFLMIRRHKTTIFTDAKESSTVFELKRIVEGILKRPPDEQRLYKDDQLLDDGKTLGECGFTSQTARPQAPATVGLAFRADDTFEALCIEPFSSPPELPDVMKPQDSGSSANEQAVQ
Sequence of Mdm2-VHL (Q15369 whole entry partner): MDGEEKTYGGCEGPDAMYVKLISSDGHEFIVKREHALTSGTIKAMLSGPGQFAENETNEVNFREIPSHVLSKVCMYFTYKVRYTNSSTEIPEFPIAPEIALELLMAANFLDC

The subject of data set [1] is Mdm2-/-p53-/- sarcoma cells. As to the kind of experiment: Murine Mdm2-/-p53-/- sarcoma cells, MTT. It is filed as cell-based, mouse. Particulars: MTT assay, 48 hrs. The text has this:
A-B. Murine Mdm2+/+p53-null sarcoma cells treated with Mdm2 PROTAC (YX-02-030), control YX-02-023 (−), or vehicle (DMSO). A. Western blots after 24 hrs (cleaved caspase 3, CC3. Mdm2^−/−p53^−/− fibroblasts were a control for the Western blot). B. Dose response curve (MTT assay, 48 hrs). C. Dose response curves of murine Mdm2^−/−p53^−/− sarcoma cells treated with Mdm2 PROTAC (YX-02-030), negative controls (−), a Bcl2/Bclx/Bclw inhibitor (+), or vehicle control (MTT assay, quadruplicate, 48 hrs- MTT assay, B-C graphed relative to DMSO).
For orientation: Tetrazolium assays rely on reduction of a dye to a coloured formazan, in cell work by metabolically active cells.

Data set [2] can be described thus: Mouse liver microsomal stability. It is filed as in vitro ADME. The following applies: mouse liver microsomes, 0.5 μM compound. On the procedure: To translate cell-based activity to in vivo efficacy, the Mdm2 PROTACs were evaluated for metabolic stability and plasma compound levels after IP injection in the mouse. Mouse liver microsome stability was obtained for lead compounds (Alliance Pharma, Inc; Malvern PA) as a predictive measure for suitable exposure in a mouse pharmacokinetic study. In brief, test compounds (0.5 μM) are incubated with liver microsomes ([…]) and an NADPH-regenerating system (cofactor solution) and samples are taken at various timepoints, quenched with an acetonitrile solution containing an internal standard, then analyzed by LC-MS/MS. […] Mouse pharmacokinetic studies for YX-02-030 and YX-02-288 were completed. Mouse plasma levels were evaluated following intraperitoneal (10 mg/kg) administration. Plasma was collected at timepoints 0.25 h, 0.5 h, 1 h, 2 h, 4 h and 6 h after Mdm2 PROTAC injection. Plasma was deproteinized and analyzed for compound using LC-MS/MS methods. Three mice were used for each time point and one control animal (Alliance Pharma Inc, Malvern PA).
On the technique in general: Liver microsomes are a subcellular fraction often used to study metabolism.

Data set [3] can be described thus: In vivo toxicity, C57Bl/6 mice. On the set-up: species or system mouse. On the procedure:
FIGS. 24A-24E show no overt toxicities from the MDM2-PROTAC YX-02-030 observed in vivo. A-B. A. After C57Bl/6 immunocompetent mice received 15 consecutive intraperitoneal (IP) injections of MDM2-PROTAC (50 mg/kg) or vehicle control treatments, complete blood counts were determined. B. H&E sections of formalin-fixed paraffin-embedded tissues evaluated (B, BM-bone marrow). C-E, Nude mice with subcutaneous tumors of MDA-MB-231 and MDA-MB-436 TNBC cells were administered (IP) MDM2-PROTAC YX-02-030, RG7112D, or vehicle control (50 mg/kg) for 14 consecutive days. C. Mouse weight was measured daily throughout the course of treatment. D. Complete blood counts were determined following 13 consecutive treatments. E. Sections of formalin-fixed paraffin-embedded tissues from mice at time of sacrifice were H&E stained and evaluated. Representative images are shown and scale bars are 200 m (spleen) and 300 μm (bone marrow and intestine). Mean±SD (A, C, D).
Prior to testing YX-02-030 tumors in vivo, mouse liver microsome and pharmacokinetic (PK) studies were performed to determine its stability in vivo. […] Due to its stability in vivo, the effectiveness of YX-02-030 was then evaluated at killing TNBC tumors in mice. […] The toxicity of YX-2-228 was analyzed as compared to both the vehicle and YX-2-30. […]

A further data set concerns SCC-25. As to the kind of experiment: Cell death of other cancer cell lines: SCC-25. It is filed as cell-based. Particulars: Homo sapiens; SCC-25, Head & Neck. On the procedure: The PROTACs prepared herein were tested for their use in other cancer cell lines to determine activity in multiple different types of cancer.

The term half-life denotes the time in which the quantity being followed falls by half. A low value points to rapid decline. As usually defined, the IC50 is the point on the concentration scale where inhibition reaches its midpoint. Lower therefore signals greater potency. In the case of `CCOc1cc(C(C)(C)C)ccc1C1=N[C@](C)(c2ccc(Cl)cc2)[C@](C)(c2ccc(Cl)cc2)N1C(=O)N1CCN(CC(=O)NCCOCCOCCOCC(=O)N[C@H](C(=O)N2C[C@H](O)C[C@H]2C(=O)NCc2ccc(-c3scnc3C)cc2)C(C)(C)C)CC1` (racemic) [YX-02-030], the ternary complex formation result on Mdm2-VHL is recorded as “efficiently form a ternary complex”. The “response of Mdm2-/-p53-/- sarcoma cells” value in data set [1] is reported as “not responsive”. The half-life at 0.5 μM in data set [2] came out at 25.9 min. For the same compound, the overt toxicity entry in data set [3] (C57Bl/6 mice and immune-deficient mice of the xenograft experiments, 50 mg/kg IP) is listed as “no signs of overt toxicity”. For the same compound, the tolerability result in data set [3] (C57Bl/6 mice, 30 mg/kg IP, 2× daily) was “well tolerated”. It took 3.1 µM to reach half-maximal inhibition with SCC-25 (IC50).
